Test results: patent publication US10227347B2, “Purinyl-N-hydroxyl pyrimidine formamide derivative, preparation methods and uses thereof” (Guizhou Bailing Group Pharmaceutical CO., LTD., priority 2015, dated 2019)
Where two headings read alike, the source gives them in different places.

Key:
HDAC1 = biological target: T1, HDAC1 (Homo sapiens, UniProt Q13547); test: In vitro HDAC1 enzymatic activity inhibition (Lys-Ac-AMC substrate); type: biochemical
T1 construct: purchased BPS Bioscience
Summary of the method: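 Fluorogenic Lys-Ac-AMC deacetylation with trypsin development in modified Tris buffer pH 7.0; compound preincubated with enzyme 15 min at ambient temperature before substrate addition. Final HDAC1 6 nM, trypsin 0.05 μM, Ac-peptide 8 μM. IC50 from four-parameter fit of % inhibition versus concentration.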

PI3Kα = biological target: T2, PI3Kα (Homo sapiens, UniProt P42336); test: PI3Kα activity inhibition (Kinase-Glo); type: biochemical
T2 construct: purchased Invitrogen PV4788
Summary of the method: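 Kinase-Glo luminescence read-out of remaining ATP after PI3K reaction with PIP2 and ATP substrates in 50 mM HEPES pH 7.5, 3 mM MgCl2, 1 mM EGTA, 100 mM NaCl, 0.03% CHAPS, 2 mM DTT. Incubated at ambient temperature, 1 h for PI3Kα, 2 h for PI3Kδ. IC50 from four-parameter fit of % inhibition versus concentration.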

PI3Kβ = biological target: T3, PI3Kβ (Homo sapiens, UniProt P42338); test: PI3Kβ activity inhibition (ADP-Glo); type: biochemical; settings: Table 1, graded
T3 construct: purchased Millipore 14-603-K
Method: (§1) Detecting the inhibition capability of the compound to PI3Kβ and PI3Kγ activities with ADP-Glo (purchased from Promege Company; Catalog No.: v9102/3). […] The reaction system also comprises substrates as PIP2 and ATP. The reaction buffer system comprises 50 mM HEPES, 3 mM MgCl2, 1 mM EGTA, 100 mM NaCl, 0.03% CHAPS and 2 mM DTT. The pH value of the reaction buffer is 7.5. […] Mixing the system evenly for incubation under ambient temperature for 1 h; getting a new 384 well plate and transferring 5 μL reaction liquid from the each well of original 384 well plate to the corresponding wells of the new 384 well plate; adding 5 μL ADP-Glo which has been preheated to ambient temperature into each new reaction well to terminate the reaction; oscillating it slowly in dark place for 40 min's incubation after it is mixed evenly; adding 10 μL testing liquid in each reaction well, oscillating it for 1 min to mix evenly and incubating it for 1 h, then measuring the fluorescence intensity with a microplate reader and analyzing the result data with the software GraphPad Prism.
(§2) Calculating the value of IC50 as per the formula: Y=background data+(top data−background data)/(1+10^((Log IC50−X)*rate of curve))
(§3) Where, Y refers to the inhibition ratio (%) and X refers to the compound concentration.

PI3Kδ = biological target: T4, PI3Kδ (Homo sapiens, UniProt O00329); test: PI3Kδ activity inhibition (Kinase-Glo); type: biochemical; settings: Table 1, graded
T4 construct: purchased Millipore 14-604-K
Method: Detecting the inhibition capability of the compound to PI3Kα and PI3Kδ activities with Kinase-Glo (purchased from Promege Company; Catalog No.: V3771). […] The reaction system also comprises substrates as PIP2 (4, 5-diphosphoinositide, purchased from Life Technologies Company) and ATP (triphosadenine, purchased from Sigma Company). The reaction buffer system comprises 50 mM HEPES (4-hydroxyethylpiperazine ethane sulfonic acid), 3 mM MgCl2, 1 mM EGTA (ethylene glycol bis(2-amino ethylether)quadrol), 100 mM NaCl, 0.03% CHAPS (3-[3-(cholamidopropyl)dimethylamino]-1-propanesulfonic acid), 2 mM DTT (dithiothreitol). The pH value of the reaction buffer is 7.5. […] Mixing the system evenly for incubation under ambient temperature (for 1 h in PI3Kα test and for 2 h in PI3Kδ test). After incubation, adding 10 μL Kinase-Glo which has been preheated to ambient temperature into each reaction well to terminate the reaction; shaking it in dark place for 15 min after it is mixed evenly, then measuring the fluorescence intensity with a microplate reader and analyzing the result data with the software GraphPad Prism.
as §2, §3

PI3Kγ = biological target: T5, PI3Kγ (Homo sapiens, UniProt P48736); test: PI3Kγ activity inhibition (ADP-Glo); type: biochemical; settings: Table 1, graded
T5 construct: purchased Invitrogen PR8641C
Method: as §1, §2, §3

mTOR = biological target: T6, mTOR (Homo sapiens, UniProt P42345); test: mTOR activity inhibition (ULight-4E-BP1 peptide); type: biochemical; settings: Table 1, graded
T6 construct: purchased Millipore 14-770
Method: mTOR protein is purchased from Millipore Company (Catalog No.: 14-770). The reaction buffer system comprises 50 mM HEPES, 10 mM MgCl2, 1 mM EGTA, 3 mM […], 0.01% Tween-20 (purchased from Chengdu Kelong Chemical Regent Factory) and 2 mM DTT. The pH value of the reaction buffer is 7.5. Preparing 10 μL reaction system in corresponding wells of the 384 well plate, which contains the compositions as: the compound with designed concentration (or blank control), mTOR protein (with the concentration of 2.5 nM), ULight-4E-BP1 (containing the 37th and the 46th threonine residues, Thr37/46) peptide (purchased from PE Company, Catalog No.: TRF0128-M) and ATP substrates (ULight-4E-BP1 peptide, with the concentration of 50 nM and ATP, with the concentration of […]). Mixing it evenly for incubation under ambient temperature for 1 h; adding 10 μL testing liquid containing EDTA (ethylenediaminetetraacetic acid) and Eu-anti-phosphorylation-4E-BP1 (Thr37/46) antibody (purchased from PE Company, Catalog No.: TRF0216-M) into the reaction wells (after the testing liquid is added, the concentration of EDTA is 8 mM and the concentration of Eu-phosphorylation-4E-BP1 antibody is 2 nM); mixing it evenly and incubating it for 1 h under ambient temperature, then measuring the fluorescence intensity with a microplate reader and analyzing the result data with the software GraphPad Prism.
as §2, §3

[1] = tested on: MV4-11 cells (acute myeloid leukemia); test: Cell proliferation inhibition, MV4-11 (cck-8); type: cell-based; settings: Homo sapiens
Summary of the method: (§4)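 Cells seeded at 2000-3000/well; adherent lines dosed after attachment, then 96 h incubation with compound. Viability read by MTT for solid-tumour lines (HCT116, A2780s) and CCK-8 for MV4-11; IC50 from four-parameter logistic fit of inhibition ratio versus concentration.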

[2] = tested on: hct116 cells (colon cancer); test: Cell proliferation inhibition, hct116 (MTT); type: cell-based; settings: Homo sapiens, HCT-116
Summary of the method: as §4

[3] = tested on: A2780s cells (ovarian cancer); test: Cell proliferation inhibition, A2780s (MTT); type: cell-based; settings: Homo sapiens
Summary of the method: as §4

[4] = tested on: acetylated Ac-α-tubulin in A2780s cells; test: Induction of α-tubulin acetylation in A2780s cells (cytoblot); type: cell-based; settings: Homo sapiens, 6 h treatment, read-out: Ac-Tub EC50
Method: (§5) Specific operation: After the treatment, washing each well once with 50-100 μl of cold TBS buffer [with the composition as 20 mM Tris (trismetyl aminomethane), pH7.5] and fixing it with 100 μL of 4% pre-cooled paraformaldehyde at 4° C. for 1 h; after paraformaldehyde is washed off, adding 50 μL of pre-cooled methyl alcohol in each well and evenly spreading at 4° C. for 5 min; after methyl alcohol is washed off, washing it once with the TBS buffer containing 3% skim milk powder and adding 50 μL of antibody fluid, oscillating it slightly at 4° C. and incubating overnight. For determination of Ac—H3, the antibody fluid is prepared by diluting Ac—H3 antibody and horseradish peroxide coupled secondary antibody to a same system with the TBS buffer containing 3% skim milk powder (Ac—H3 antibody is purchased from Santa Cruz Company and diluted at a ratio of 1:100; horseradish peroxide coupled secondary antibody is purchased from Jackson Company and diluted at a ratio of 1:2000); for determination of acetylated Ac-α-tubulin, the antibody fluid is prepared by diluting Ac-α-tubulin antibody and horseradish peroxide coupled secondary antibody to a same system with the TBS buffer containing 3% skim milk powder (Ac-α-tubulin antibody is purchased from Santa Cruz Company and diluted at a ratio of 1:100; horseradish peroxide coupled secondary antibody is purchased from Jackson Company and diluted at a ratio of 1:2000).
(§6) Calculating the value of IC50 as per the formula: Y=background data+(top data−background data)/(1+10^((Log EC50−X)*rate of curve)) Where, Y refers to the activating rate (%) and X refers to the compound concentration.

[5] = tested on: acetylated histone H3 (Ac-H3) in A2780s cells; test: Induction of histone H3 acetylation in A2780s cells (cytoblot); type: cell-based; settings: Homo sapiens, 6 h treatment
Method: as §5, §6

[6] = tested on: MV4-11 subcutaneous tumor; settings: 50 mg/kg i.p., once per two days, 22 days
Description: During drug administration, measuring the weight and gross tumor volume of the mice per 2 days and keeping a record. The calculation formula is as V=π/6×A^2×B, where, where, V=gross tumor volume (mm^3), A=tumor width (mm) and B=tumor length (mm). Observing and keeping a record for the survival condition of the tested animals. After drug discontinuance, killing the mice through cervical dislocation and peeling off their tumors as per the operation specification of animal experiment. Evaluating the inhibition capability of the compounds to tumor activities by calculating the tumor inhibitory rate with the formula as: tumor inhibitory rate=(1−tumor weight of treatment group/tumor weight of control group)×100%. Analyzing and comparing the difference between each treatment group and control group with the method of t-test. The grading of significance level of difference is: ***, P<0.001; **, P<0.01; *, P<0.05; no statistical significance (ns), P>0.05.

[7] = tested on: human colon cancer hct116 subcutaneous tumor; test: Subcutaneous tumor model, human colon cancer hct116; settings: 50 mg/kg, once per 2 days, intraperitoneal
[8] = Table 1, graded, read-out: HDAC1 IC50
[9] = Table 1, graded, read-out: PI3Kα IC50
[10] = read-out: inhibition value IC50 to the activity of PI3Kα
[11] = 96 h incubation, read-out: Proliferation IC50, Acute myeloid leukemia MV4-11
[12] = read-out: IC50 to proliferation of MV4-11 cells
[13] = 96 h incubation, read-out: Proliferation IC50, Colon cancer hct116
[14] = read-out: IC50 to proliferation of hct116 cells
[15] = 96 h incubation, read-out: Proliferation IC50, Ovarian cancer A2780s
[16] = read-out: IC50 to proliferation of A2780s cells

T2 sequence (P42336 whole entry, species assumed): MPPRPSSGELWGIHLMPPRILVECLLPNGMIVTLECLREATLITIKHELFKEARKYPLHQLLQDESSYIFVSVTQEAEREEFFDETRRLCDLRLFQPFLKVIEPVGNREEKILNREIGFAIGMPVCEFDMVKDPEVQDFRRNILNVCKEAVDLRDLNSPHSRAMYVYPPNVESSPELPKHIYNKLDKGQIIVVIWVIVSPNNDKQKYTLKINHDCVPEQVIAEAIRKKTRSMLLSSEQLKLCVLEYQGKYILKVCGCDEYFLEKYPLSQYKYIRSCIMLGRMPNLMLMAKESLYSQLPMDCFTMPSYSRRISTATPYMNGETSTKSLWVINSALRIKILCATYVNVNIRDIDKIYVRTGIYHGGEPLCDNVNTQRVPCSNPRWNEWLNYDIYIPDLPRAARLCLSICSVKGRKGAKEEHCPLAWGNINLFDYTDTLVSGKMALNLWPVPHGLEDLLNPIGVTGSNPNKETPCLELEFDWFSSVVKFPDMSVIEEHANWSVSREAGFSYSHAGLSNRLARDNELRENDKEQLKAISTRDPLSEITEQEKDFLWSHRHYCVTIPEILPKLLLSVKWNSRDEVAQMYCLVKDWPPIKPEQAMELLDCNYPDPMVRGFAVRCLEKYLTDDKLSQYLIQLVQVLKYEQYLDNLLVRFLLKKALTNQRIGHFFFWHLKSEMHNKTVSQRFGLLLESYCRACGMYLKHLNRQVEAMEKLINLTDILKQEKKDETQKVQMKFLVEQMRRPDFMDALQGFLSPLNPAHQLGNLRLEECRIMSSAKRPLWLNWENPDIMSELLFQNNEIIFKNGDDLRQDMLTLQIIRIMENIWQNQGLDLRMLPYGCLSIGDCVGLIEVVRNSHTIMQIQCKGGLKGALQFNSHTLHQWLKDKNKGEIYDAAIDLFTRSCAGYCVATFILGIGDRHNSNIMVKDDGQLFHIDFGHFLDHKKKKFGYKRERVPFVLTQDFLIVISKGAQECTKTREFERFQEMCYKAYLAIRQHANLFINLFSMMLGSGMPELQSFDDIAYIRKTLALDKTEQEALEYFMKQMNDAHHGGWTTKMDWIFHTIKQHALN
T2 sequence (P27986 whole entry partner, species assumed): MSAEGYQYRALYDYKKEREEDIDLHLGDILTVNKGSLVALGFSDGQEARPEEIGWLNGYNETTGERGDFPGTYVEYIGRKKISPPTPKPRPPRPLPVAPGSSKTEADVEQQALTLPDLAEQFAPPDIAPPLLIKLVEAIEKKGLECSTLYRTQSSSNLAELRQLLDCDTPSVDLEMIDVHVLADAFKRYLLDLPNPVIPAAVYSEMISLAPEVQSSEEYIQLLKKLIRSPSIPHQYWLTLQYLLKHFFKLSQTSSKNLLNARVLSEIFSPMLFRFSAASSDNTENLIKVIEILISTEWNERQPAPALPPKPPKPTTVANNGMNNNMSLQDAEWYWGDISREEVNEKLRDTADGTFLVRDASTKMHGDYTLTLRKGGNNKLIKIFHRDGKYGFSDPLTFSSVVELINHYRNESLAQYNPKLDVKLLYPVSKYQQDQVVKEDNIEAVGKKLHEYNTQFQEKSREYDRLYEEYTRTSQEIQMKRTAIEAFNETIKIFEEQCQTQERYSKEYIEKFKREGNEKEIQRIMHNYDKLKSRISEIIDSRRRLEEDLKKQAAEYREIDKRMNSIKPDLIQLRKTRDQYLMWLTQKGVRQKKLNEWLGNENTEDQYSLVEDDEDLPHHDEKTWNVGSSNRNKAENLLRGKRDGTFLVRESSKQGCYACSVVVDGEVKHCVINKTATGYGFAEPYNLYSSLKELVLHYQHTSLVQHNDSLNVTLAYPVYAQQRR
T4 sequence (O00329 whole entry): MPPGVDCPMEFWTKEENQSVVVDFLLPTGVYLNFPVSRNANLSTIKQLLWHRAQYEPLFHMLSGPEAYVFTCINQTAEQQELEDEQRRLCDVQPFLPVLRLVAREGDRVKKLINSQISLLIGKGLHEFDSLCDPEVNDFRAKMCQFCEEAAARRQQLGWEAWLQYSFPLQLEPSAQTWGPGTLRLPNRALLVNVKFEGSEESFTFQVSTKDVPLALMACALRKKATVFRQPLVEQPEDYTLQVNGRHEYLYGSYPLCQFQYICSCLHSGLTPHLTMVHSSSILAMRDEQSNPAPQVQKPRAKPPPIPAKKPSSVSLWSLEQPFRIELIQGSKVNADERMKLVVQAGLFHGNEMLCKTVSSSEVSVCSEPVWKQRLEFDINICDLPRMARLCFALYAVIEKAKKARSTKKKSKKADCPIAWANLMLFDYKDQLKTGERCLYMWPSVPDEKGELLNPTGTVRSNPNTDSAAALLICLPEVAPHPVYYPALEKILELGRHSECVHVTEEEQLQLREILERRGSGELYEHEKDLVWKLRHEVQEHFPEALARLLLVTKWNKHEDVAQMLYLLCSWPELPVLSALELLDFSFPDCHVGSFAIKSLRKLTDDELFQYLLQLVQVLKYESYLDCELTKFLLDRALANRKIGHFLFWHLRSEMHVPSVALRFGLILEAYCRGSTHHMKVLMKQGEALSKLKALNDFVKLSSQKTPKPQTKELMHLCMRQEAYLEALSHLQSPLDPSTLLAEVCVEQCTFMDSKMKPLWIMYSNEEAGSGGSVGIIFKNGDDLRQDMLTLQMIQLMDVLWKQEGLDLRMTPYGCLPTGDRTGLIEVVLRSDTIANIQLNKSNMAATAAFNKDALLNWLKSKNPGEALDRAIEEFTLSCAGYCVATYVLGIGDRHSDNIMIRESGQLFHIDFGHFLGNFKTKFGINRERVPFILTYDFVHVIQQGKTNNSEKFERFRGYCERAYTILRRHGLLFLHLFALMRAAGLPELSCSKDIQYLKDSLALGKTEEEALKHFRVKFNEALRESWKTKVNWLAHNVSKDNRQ
T4 sequence (P27986 whole entry partner): as the sequence (P27986 whole entry partner, species assumed) above
T5 sequence (P48736 whole entry): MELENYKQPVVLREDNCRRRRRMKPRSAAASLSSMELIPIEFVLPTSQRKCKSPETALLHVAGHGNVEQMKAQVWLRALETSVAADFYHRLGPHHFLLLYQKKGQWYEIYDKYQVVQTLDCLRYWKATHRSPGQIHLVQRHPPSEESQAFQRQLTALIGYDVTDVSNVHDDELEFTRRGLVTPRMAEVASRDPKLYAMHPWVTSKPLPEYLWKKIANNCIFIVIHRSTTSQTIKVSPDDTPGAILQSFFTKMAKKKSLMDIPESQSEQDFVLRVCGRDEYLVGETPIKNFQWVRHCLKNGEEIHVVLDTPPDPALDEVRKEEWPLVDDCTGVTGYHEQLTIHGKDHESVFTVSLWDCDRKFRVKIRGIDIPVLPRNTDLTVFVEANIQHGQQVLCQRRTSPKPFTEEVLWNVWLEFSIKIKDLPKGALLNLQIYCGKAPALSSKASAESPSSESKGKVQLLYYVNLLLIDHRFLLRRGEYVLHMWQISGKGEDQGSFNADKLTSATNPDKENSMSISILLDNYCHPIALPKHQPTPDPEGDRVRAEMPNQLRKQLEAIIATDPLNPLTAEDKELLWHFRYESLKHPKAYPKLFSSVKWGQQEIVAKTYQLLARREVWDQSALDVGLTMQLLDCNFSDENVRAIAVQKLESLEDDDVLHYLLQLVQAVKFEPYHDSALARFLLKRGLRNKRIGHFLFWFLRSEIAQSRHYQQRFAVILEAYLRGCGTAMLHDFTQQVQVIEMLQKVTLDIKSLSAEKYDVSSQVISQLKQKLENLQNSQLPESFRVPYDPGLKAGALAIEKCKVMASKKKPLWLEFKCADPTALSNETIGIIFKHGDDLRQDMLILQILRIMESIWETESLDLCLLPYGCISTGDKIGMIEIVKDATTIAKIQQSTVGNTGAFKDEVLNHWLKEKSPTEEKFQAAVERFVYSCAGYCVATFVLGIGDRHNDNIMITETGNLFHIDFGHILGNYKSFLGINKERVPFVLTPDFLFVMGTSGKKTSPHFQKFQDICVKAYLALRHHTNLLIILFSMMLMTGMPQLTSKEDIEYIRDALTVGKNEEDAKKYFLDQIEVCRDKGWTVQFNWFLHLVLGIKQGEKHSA
T3 sequence (P42338 whole entry, species assumed): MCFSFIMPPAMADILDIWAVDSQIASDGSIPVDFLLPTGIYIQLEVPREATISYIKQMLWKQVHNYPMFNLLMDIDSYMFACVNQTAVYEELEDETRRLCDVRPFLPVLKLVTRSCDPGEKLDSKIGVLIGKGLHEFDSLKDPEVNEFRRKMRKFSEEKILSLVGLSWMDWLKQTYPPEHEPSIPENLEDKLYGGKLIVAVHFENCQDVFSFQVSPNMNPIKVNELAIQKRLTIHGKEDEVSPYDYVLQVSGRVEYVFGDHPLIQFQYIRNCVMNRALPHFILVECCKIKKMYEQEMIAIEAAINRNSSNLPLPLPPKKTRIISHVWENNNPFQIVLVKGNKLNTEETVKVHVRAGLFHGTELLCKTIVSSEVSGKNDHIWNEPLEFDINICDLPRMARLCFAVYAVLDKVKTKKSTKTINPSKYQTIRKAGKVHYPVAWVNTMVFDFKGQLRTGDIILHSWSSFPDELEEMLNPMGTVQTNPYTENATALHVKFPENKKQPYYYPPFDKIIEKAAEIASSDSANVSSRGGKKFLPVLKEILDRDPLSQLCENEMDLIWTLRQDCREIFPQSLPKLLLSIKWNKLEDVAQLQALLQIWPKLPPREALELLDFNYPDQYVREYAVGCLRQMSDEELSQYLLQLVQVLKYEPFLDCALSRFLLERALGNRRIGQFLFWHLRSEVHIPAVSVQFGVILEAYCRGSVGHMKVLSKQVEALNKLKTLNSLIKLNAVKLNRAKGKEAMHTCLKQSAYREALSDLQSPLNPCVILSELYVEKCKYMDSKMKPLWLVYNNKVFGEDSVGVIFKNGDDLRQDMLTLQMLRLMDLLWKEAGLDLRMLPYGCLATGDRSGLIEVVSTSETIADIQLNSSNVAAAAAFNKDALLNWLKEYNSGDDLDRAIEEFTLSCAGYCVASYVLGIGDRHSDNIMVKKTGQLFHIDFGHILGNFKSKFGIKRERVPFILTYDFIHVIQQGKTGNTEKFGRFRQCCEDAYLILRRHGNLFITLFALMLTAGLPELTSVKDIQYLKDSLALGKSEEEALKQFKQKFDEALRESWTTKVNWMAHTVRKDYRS
T3 sequence (P27986 whole entry partner, species assumed): as the sequence (P27986 whole entry partner, species assumed) above

Structure (SMILES)	IC50 (HDAC1; [8])	IC50 (PI3Kα; [9])	IC50 (PI3Kα; [10])	IC50 (PI3Kβ)	IC50 (PI3Kδ)	IC50 (PI3Kγ)	IC50 (mTOR)	IC50 [1, 11]	IC50 [1, 12]	IC50 [2, 13]	IC50 [2, 14]	IC50 [3, 15]	IC50 [3, 16]	IC50 (HDAC1; read-out: inhibition value IC50 to the activity of HDAC1)	EC50 [4]	EC50 [5]	Final survival condition (survived individuals/total individuals) [6]	Death [7]
CNc1ncc(-c2nc(N3CCOCC3)c3nc(CN(C)c4ncc(C(=O)NO)cn4)n(C)c3n2)cn1 [CLJ-12, 2-(((2-(4-aminemethylpyrimidine)-9-methyl-6-morpholine-9H-purine-8-yl))methyl(methyl)amino)-N-hydroxyl pyrimidine-5-formamide]	< 100 nM	< 100 nM	< 100 nM	100 to 1000 nM	100 to 1000 nM	100 to 1000 nM	100 to 1000 nM	0.1 to 10 nM	0.1 to 10 nM	0.1 to 10 nM	0.1 to 10 nM	0.1 to 10 nM	0.1 to 10 nM	–	–	–	–	–
Cc1ncc(-c2nc(N3CCOCC3)c3nc(CN(C)c4ncc(C(=O)NO)cn4)n(C)c3n2)cn1 [CLJ-13]	< 100 nM	< 100 nM	< 100 nM	100 to 1000 nM	100 to 1000 nM	100 to 1000 nM	100 to 1000 nM	0.1 to 10 nM	0.1 to 10 nM	0.1 to 10 nM	0.1 to 10 nM	0.1 to 10 nM	0.1 to 10 nM	–	–	–	–	–
CN(Cc1nc2c(N3CCOCC3)nc(-c3cnc4ccccc4c3)nc2n1C)c1ncc(C(=O)NO)cn1 [CLJ-14, 2-(((2-(quinoline-3-yl)-9-methyl-6-morpholine-9H-purine-8-yl))methyl(methyl)amino)-N-hydroxyl pyrimidine-5-formamide]	< 100 nM	> 10000 nM	–	> 10000 nM	> 10000 nM	> 10000 nM	> 10000 nM	0.1 to 10 nM	–	10 to 100 nM	–	0.1 to 10 nM	–	–	–	–	–	–
CN(Cc1nc2c(N3CCOCC3)nc(-c3ccc4[nH]ncc4c3)nc2n1C)c1ncc(C(=O)NO)cn1 [CLJ-15, 2-(((2-(1H-indazole-5-yl)-9-methyl-6-morpholine-9H-purine-8-yl))methyl(methyl)amino)-N-hydroxyl pyrimidine-5-formamide]	< 1 nM	1000 to 10000 nM	–	> 10000 nM	> 10000 nM	> 10000 nM	> 10000 nM	10 to 100 nM	–	10 to 100 nM	–	10 to 100 nM	–	< 1 nM	–	–	–	–
COc1ccc(-c2nc(N3CCOCC3)c3sc(CN(C)c4ncc(C(=O)NO)cn4)cc3n2)cn1 [CUDC907, reference compound]	–	–	–	–	–	–	1000 to 10000 nM	–	–	–	–	–	–	–	> 200 nM	100 to 200 nM	–	–
O=C(CCCCCCC(=O)Nc1ccccc1)NO [SAHA, vorinostat, reference compound]	–	–	–	–	–	–	–	–	–	–	–	–	–	–	–	–	6/6	0/6
